The source of these data is patent publication US9345703B2, “Kappa opioid receptor effectors and uses thereof” (University of Kansas, priority 2011, dated 2016).

One test concerns the target DOR (Homo sapiens, UniProt P41143). Put plainly: High content imaging β-arrestin translocation assay, DOR antagonist (DOR HCS). It counts as cell-based. As to conditions: antagonist; average; read-out: Potency, Antitarget DOR HCS. From the text: (§1) In this campaign, two assay platforms were employed to evaluate KOR activity and selectivity: the KOR1 DISCOVERX β-Arrestin […] assay and an imaging based β-arrestin translocation assay for confirmatory and selectivity assays. The KOR1 DISCOVERX β-Arrestin […] assay is a commercial platform for direct measurement of GPCR (G protein-coupled receptor) activation by detection of β-Arrestin binding to the KOR. […] In cells that stably express these fusion proteins, ligand stimulation results in the recruitment of β-Arrestin by the GPCR. This interaction encourages the complementation of the two β-galactosidase fragments resulting in the formation of a functional enzyme that converts substrate in the assay medium to a detectable signal. The imaging based high-content β-arrestin translocation assay is based upon the redistribution of β-Arrestin linked to green fluorescent protein (GFP) to the cell surface and detection (Barak, et al. (1997) J. Biol. Chem. 272:27497-27500).
(§2) Initially, a portion (approximately 290,000 compounds) of the MLSMR compound collection was tested in the KOR1 DISCOVERX β-arrestin primary kappa opioid (KOP) agonist and antagonist screens (PUBCHEM AID 1777 and 1778, respectively) at a single concentration point (10 μM). […] These compounds were concurrently tested in a β-galactosidase counterscreen assay (PUBCHEM AID 1966) to assess the possibility that these compounds might inhibit the reporting enzyme. […] The KOR:DOR:MOR selectivity of the compounds was determined using the analogous β-arrestin translocation assays for the DOR (PUBCHEM AID 2370 and 2357, for agonists and antagonist, respectively) and the MOR (PUBCHEM AID 2352 and 2420, for agonists and antagonists, respectively).

Test [1] concerns the target T1, MOR (Homo sapiens, UniProt P35372). The test can be described thus: High content imaging β-arrestin translocation assay, MOR antagonist (MOR HCS). It counts as cell-based. As to conditions: antagonist; average; read-out: Potency, Antitarget MOR HCS.
Source text: as §1, §2

The target in test [2] is T2, KOR (Homo sapiens, UniProt P41145). Put plainly: High content imaging β-arrestin translocation assay, KOR antagonist (KOR HCS). It counts as cell-based. The note with it: antagonist; average; read-out: Potency, Target KOR HCS.
Source text: as §1, §2

The target in test [3] is T2, KOR. Put plainly: KOR1 DISCOVERX β-Arrestin […] assay, antagonist mode (KOR DRX). It is filed as cell-based. The note with it: antagonist; average; read-out: Potency, Target KOR DRX.
Source text: as §1, §2

The target of test [4] is T2, KOR. The test can be described thus: Binding affinity Ki of Table 9.
Test [5] deals with T2, KOR. Put plainly: DISCOVERX β-arrestin […] assay, agonist mode (KOR DRx). It counts as cell-based. As to conditions: for EC50: agonist, n = 3, read-out: Average Potency KOR DRx; for Emax (%): at highest concentration tested, compared to dynorphin A (Emax=100%).
Source text: as §1, with “signal.” for “signal. The imaging based high-content β-arrestin translocation assay is based upon the redistribution of β-Arrestin linked to green fluorescent protein (GFP) to the cell surface and detection (Barak, et al. (1997) J. Biol. Chem. 272:27497-27500).”

Test [6] has as its target T2, KOR. Put plainly: High content imaging based β-arrestin translocation assay, KOR agonist (KOR HCS). It is filed as cell-based. The note with it: n = 2, read-out: Average Potency KOR HCS.
Source text: as §1, §2

Test [7] concerns the target T1, MOR. The test can be described thus: High content imaging based β-arrestin translocation assay, MOR agonist (MOR HCS). It counts as cell-based. The note with it: n = 2, read-out: Average Potency MOR HCS.
Source text: as §1, §2

A word on the Ki: it is a dissociation constant, usually derived from enzyme kinetics or from competition with a known ligand.

Molecules are shown by their SMILES.

T1 sequence (P35372 whole entry): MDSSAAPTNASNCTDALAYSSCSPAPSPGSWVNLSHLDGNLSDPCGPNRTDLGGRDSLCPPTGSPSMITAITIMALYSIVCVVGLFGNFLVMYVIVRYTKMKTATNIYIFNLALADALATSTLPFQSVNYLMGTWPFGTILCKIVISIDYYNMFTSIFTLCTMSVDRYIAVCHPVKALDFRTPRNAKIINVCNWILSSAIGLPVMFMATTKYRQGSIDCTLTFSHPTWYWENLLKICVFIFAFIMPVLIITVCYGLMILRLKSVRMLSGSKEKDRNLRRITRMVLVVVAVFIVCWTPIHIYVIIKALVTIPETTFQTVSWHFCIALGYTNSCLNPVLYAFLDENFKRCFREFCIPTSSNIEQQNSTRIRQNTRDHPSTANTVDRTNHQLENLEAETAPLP
Chain of DOR (P41143 whole entry, the tested form may be a part): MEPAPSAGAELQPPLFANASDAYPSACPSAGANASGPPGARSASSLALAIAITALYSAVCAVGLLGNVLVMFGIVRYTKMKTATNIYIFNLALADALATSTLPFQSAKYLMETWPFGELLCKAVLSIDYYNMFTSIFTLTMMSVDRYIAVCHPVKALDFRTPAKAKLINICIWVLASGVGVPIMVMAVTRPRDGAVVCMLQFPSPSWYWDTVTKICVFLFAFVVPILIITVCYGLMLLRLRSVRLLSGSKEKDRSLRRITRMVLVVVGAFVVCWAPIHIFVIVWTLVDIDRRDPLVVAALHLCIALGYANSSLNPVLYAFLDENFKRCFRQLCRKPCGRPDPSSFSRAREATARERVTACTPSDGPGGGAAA
T2 sequence (P41145 whole entry): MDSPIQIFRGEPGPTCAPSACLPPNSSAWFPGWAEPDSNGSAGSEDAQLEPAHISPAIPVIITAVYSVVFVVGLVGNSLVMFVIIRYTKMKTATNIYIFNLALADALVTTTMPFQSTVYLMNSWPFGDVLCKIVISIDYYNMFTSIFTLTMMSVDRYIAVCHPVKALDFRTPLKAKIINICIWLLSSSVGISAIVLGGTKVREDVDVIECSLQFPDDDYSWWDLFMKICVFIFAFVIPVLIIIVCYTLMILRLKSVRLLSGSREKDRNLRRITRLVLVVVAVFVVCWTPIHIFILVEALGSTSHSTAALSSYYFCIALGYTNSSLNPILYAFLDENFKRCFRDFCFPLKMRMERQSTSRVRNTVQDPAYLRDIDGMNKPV

`COc1ccc(N2CCN(CCCNC(=O)Cn3c(=O)c4cccn4c4cccnc43)CC2)c(OC)c1` [1{9}]: the IC50 was above 32 µM on DOR, 10.8 µM on MOR [1], 490 nM at KOR [2] and 2.65 µM at KOR [3].

On to `Cc1ccc(N2CCN(CCCNC(=O)Cn3c(=O)c4cccn4c4cccnc43)CC2)cc1` [1{12}], for which the IC50 on DOR was above 32 µM; on MOR [1], 18.8 µM; on KOR [2], 890 nM; on KOR [3], 3.68 µM.

Turning to `COc1ccc(N2CCN(CCCNC(=O)Cn3c(=O)c4cccn4c4cc(Br)cnc43)CC2)cc1` [1{14}], the IC50 was above 32 µM on DOR, 10.3 µM on MOR [1], 690 nM on KOR [2] and 3.05 µM on KOR [3].

Turning to `COc1ccc(N2CCN(CCCNC(=O)Cn3c(=O)c4cccn4c4cc(Br)cnc43)CC2)c(OC)c1` [1{16}], the IC50 on DOR is above 32 µM; at MOR [1], 10.2 µM; on KOR [2], 3020 nM; at KOR [3] it was 2.82 µM.

As for `Cc1ccc(Cl)cc1N1CCN(CCCNC(=O)Cn2c(=O)c3cccn3c3cccnc32)CC1` [1{24}], the IC50 at DOR is above 32 µM; at MOR [1], 3.98 µM; on KOR [2], above 32000 nM; at KOR [3] it was above 20 µM.

With `COc1ccc(N2CCN(CCCCNC(=O)Cn3c(=O)c4cccn4c4c(C)ccnc43)CC2)cc1` [1{27}], the IC50 on DOR is above 32 µM; at MOR [1] it was above 32 µM; at KOR [2], 5 nM; on KOR [3] it was 1.25 µM.

On to `Fc1cccc(F)c1CSc1nnc(-c2ccccn2)n1Cc1ccco1` [2{41}], for which, on KOR [4], the Ki is 55 nM. The EC50 is above 20 µM at KOR [5], above 32 µM at KOR [6] and above 32 µM at MOR [7].

Consider `Cc1ccnc2c1n1cccc1c(=O)n2CC(=O)NCCCN1CCN(c2ccc(Cl)cc2)CC1` [Compound 1{6}], for which the IC50 at DOR is above 32 µM; at MOR [1], above 32 µM; on KOR [2] it was 70 nM; at KOR [3] it was 0.69 µM.

As for `O=C(Cn1c(=O)c2cccn2c2cccnc21)NCCCN1CCN(c2ccc3c(c2)OCO3)CC1` [Compound 1{10}], the IC50 is above 32 µM at DOR, above 32 µM at MOR [1], 780 nM at KOR [2] and 4.23 µM on KOR [3].

In the case of `O=C(Cn1c(=O)c2cccn2c2cccnc21)NCCCN1CCN(c2ccc(Cl)cc2)CC1` [Compound 1{11}], the IC50 at DOR is above 32 µM; at MOR [1] it was above 32 µM; on KOR [2], 96 nM; on KOR [3], 5.18 µM.

In the case of `O=C(Cn1c(=O)c2cccn2c2cccnc21)NCCCN1CCN(c2ccccc2)CC1` [Compound 1{13}], the IC50 is above 32 µM at DOR, above 32 µM at MOR [1], 12700 nM on KOR [2] and above 20 µM on KOR [3].

Take `O=C(Cn1c(=O)c2cccn2c2cc(Br)cnc21)NCCCN1CCN(c2ccc(Cl)cc2)CC1` [Compound 1{15}]: the IC50 at DOR is above 32 µM; on MOR [1], 5.32 µM; at KOR [2] it was above 32000 nM; at KOR [3] it was above 20 µM.

On to `O=C(Cn1c(=O)c2cccn2c2cc(Br)cnc21)NCCCN1CCN(c2ccc3c(c2)OCO3)CC1` [Compound 1{17}], for which the IC50 at DOR was above 32 µM; on MOR [1], above 32 µM; at KOR [2], 150 nM; at KOR [3] it was 3.11 µM.

`O=C(Cn1c(=O)c2cccn2c2cccnc21)NCCCN1CCOCC1` [Compound 1{19}]: the IC50 at DOR is above 32 µM; at MOR [1] it was above 32 µM; at KOR [2], above 32000 nM; on KOR [3] it was above 20 µM.

On to `CN1CCN(CCCNC(=O)Cn2c(=O)c3cccn3c3cccnc32)CC1` [Compound 1{20}], for which the IC50 was above 32 µM on DOR, above 32 µM on MOR [1], above 32000 nM at KOR [2] and above 20 µM at KOR [3].

As for `O=C(Cn1c(=O)c2cccn2c2cccnc21)NCCCN1CCCCC1` [Compound 1{21}], the IC50 on DOR was above 32 µM; at MOR [1], above 32 µM; at KOR [2] it was above 32000 nM; on KOR [3], above 20 µM.

As for `O=C(Cn1c(=O)c2cccn2c2cccnc21)NCCCN1CCN(Cc2ccccc2)CC1` [Compound 1{23}], the IC50 is above 32 µM on DOR, above 32 µM on MOR [1], 21500 nM at KOR [2] and above 20 µM at KOR [3].

`FC(F)(F)c1cc(CSc2nnc(-c3ccccn3)n2Cc2cccs2)ccc1Cl` [Compound 2{11}] showed a Ki on KOR [4] of 3 nM. Also, the EC50 was 0.43 µM at KOR [5], 1.4 µM at KOR [6] and above 32 µM on MOR [7]. Further, at KOR [5], the “Emax (%)” value is reported as around 109%.

Regarding `Cc1ccc(CSc2nnc(-c3ccccn3)n2Cc2ccco2)cc1` [Compound 2{12}], affinity on KOR [4] was put at a Ki of 16 nM. Also, the EC50 is 6.2 ± 1.26 µM on KOR [5], 5.21 µM at KOR [6] and above 32 µM at MOR [7]. For the same compound, at KOR [5], the “Emax (%)” value was around 150%.

In the case of `Fc1cc(F)cc(CSc2nnc(-c3ccccn3)n2Cc2cccs2)c1` [Compound 2{17}], at KOR [4], the Ki amounted to 94 nM. The EC50 is 7.2 µM at KOR [5], above 17.8 µM at KOR [6] and above 32 µM on MOR [7]. Further, the “Emax (%)” value at KOR [5] is around 150%.

At KOR [4], `COc1ccc(CSc2nnc(-c3ccccn3)n2Cc2ccco2)cc1` [Compound 2{20}] displayed a Ki of 28 nM. The EC50 on KOR [5] was 7.7 ± 1.47 µM; at KOR [6] it was 12.4 µM; on MOR [7], above 32 µM. Also, the “Emax (%)” value on KOR [5] is given as around 150%.

The compound `COc1ccc(CSc2nnc(-c3ccccn3)n2Cc2cccs2)cc1` [Compound 2{21}] gave a Ki on KOR [4] of 7.1 nM. The EC50 at KOR [5] is 9.62 ± 1.32 µM; on KOR [6] it was 5.98 µM; on MOR [7] it was above 32 µM. Further, the “Emax (%)” value on KOR [5] is on record as around 130%.

In turn, `c1ccc(CSc2nnc(-c3ccccn3)n2Cc2ccco2)cc1` [Compound 2{22}] returned a Ki on KOR [4] of 155 nM. Moreover, the EC50 at KOR [5] is above 17.9 µM; at KOR [6], above 32 µM; on MOR [7], above 32 µM. Besides, the “Emax (%)” value at KOR [5] is recorded as “Emax not reached”.

With `c1ccc(CSc2nnc(-c3ccccn3)n2Cc2cccs2)cc1` [Compound 2{23}], on KOR [4], the affinity, expressed as Ki, was 138 nM. Further, the EC50 on KOR [5] is 13.8 ± 1.18 µM; on KOR [6], 23.5 µM; at MOR [7], above 32 µM. In addition, the “Emax (%)” value on KOR [5] was around 150%.

`CC(C)c1ccc(CSc2nnc(-c3ccccn3)n2Cc2cccs2)cc1` [Compound 2{34}] came in with a Ki at KOR [4] of 2.3 nM. Besides, the EC50 was 3.66 µM at KOR [5], 2.2 µM at KOR [6] and above 32 µM at MOR [7]. In addition, on KOR [5], the “Emax (%)” value is on record as around 100%.

In the case of `Cc1ccccc1CSc1nnc(-c2ccccn2)n1Cc1ccco1` [Compound 2{35}], at KOR [4], the affinity corresponds to a Ki of 123 nM. The EC50 at KOR [5] is above 18.8 µM; at KOR [6] it was above 30 µM; on MOR [7], above 32 µM.

On KOR [4], `Cc1ccccc1CSc1nnc(-c2ccccn2)n1Cc1cccs1` [Compound 2{36}] returned a Ki of 68 nM. The results for the EC50 on KOR [5], at KOR [6] and on MOR [7] were above 16 µM, 14.5 µM and above 32 µM, respectively.

In the case of `COc1cccc(CSc2nnc(-c3ccccn3)n2Cc2ccco2)c1` [Compound 2{37}], the Ki at KOR [4] stood at 67 nM. For the same compound, the EC50 on KOR [5] was above 17.6 µM; at KOR [6], above 32 µM; at MOR [7], above 32 µM.
